According to ChEMBL document CHEMBL1126935, “N-acyl-L-tryptophan benzyl esters: potent substance P receptor antagonists” (J Med Chem, 1993):

The compounds below were run against Substance-P receptor (Homo sapiens, UniProt P25103) (assay: Tested against cloned human NK1 receptor by displacement of 125 I -labeled substance P expressed in CHO cells).
Format: cell-based

Chain of Substance-P receptor (P25103 whole entry): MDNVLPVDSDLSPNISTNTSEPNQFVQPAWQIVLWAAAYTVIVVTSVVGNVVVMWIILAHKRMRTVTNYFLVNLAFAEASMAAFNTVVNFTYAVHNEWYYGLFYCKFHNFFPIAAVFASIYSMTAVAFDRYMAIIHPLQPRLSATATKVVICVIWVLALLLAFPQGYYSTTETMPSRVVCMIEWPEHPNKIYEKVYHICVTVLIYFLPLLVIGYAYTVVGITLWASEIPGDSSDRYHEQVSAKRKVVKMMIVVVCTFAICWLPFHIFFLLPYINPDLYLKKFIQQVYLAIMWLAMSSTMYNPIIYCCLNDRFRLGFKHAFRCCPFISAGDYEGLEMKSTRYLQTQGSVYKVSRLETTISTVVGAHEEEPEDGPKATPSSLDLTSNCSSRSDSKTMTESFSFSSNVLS

IC50 [nM]	Compound
> 10000	N[C@@H](Cc1c[nH]c2ccccc12)C(=O)OCc1ccccc1
125	Cc1cc(C)cc(COC(=O)[C@H](Cc2c[nH]c3ccccc23)[N+](C)(C)C)c1
1530	Cc1cc(C)cc(COC(=O)[C@@H](N)Cc2c[nH]c3ccccc23)c1
413	CC(C)(C)OC(=O)N[C@@H](Cc1c[nH]c2ccccc12)C(=O)OCc1ccccc1
280	COc1ccccc1COC(=O)[C@H](Cc1c[nH]c2ccccc12)NC(=O)OC(C)(C)C
67	CC(=O)N[C@@H](Cc1c[nH]c2ccccc12)C(=O)OCc1cc(C)cc(C)c1 [L-708568]

Compound	IC50 [nM]
Cc1cc(C)cc(COC(=O)[C@H](Cc2c[nH]c3ccccc23)N(C)C)c1	553
